These compounds were tested against T1, NTCP (Homo sapiens, UniProt Q14973) (assay: [3H]-TCA uptake assay (NTCP inhibition)). Conditions: IC50, given as a range, marked * (asterisk not explained).
T1 sequence (Q14973 1-349): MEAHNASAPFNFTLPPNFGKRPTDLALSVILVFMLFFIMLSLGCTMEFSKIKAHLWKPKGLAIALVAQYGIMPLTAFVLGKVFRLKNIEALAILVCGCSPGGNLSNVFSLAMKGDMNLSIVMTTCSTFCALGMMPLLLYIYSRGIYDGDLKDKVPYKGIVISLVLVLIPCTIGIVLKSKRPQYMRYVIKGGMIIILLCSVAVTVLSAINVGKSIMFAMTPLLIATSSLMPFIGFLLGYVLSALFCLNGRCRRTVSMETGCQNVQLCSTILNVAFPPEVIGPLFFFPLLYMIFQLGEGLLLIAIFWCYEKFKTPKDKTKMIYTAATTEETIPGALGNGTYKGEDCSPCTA
Type: cell-based
Method in brief: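 Read-out is liquid scintillation counting of Triton X-100 lysates after 15 min, 37° C uptake of 1 μM [3H]-taurocholate in Na+ Ringer's buffer (145 mM Na). Beforehand, PTH and HepG2-NTCP cells had 24 h in PMM for NTCP induction and 2 h of compound or DMSO treatment.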
`CCC1NC(=O)C(C2OC(SCc3ccccc3Cl)CC2C)N(C)C(=O)C(C(C)C)N(C)C(=O)C(CC(C)C)N(C)C(=O)C(CC(C)C)N(C)C(=O)C(C)NC(=O)C(C)NC(=O)C(CC(C)C)N(C)C(=O)C(C(C)C)NC(=O)C(CC(C)C)N(C)C(=O)CN(C)C1=O` (stereo not drawn) [Compound 84A-s] gave an IC50 of 1000 to 100000 nM.
Compound `CCC1NC(=O)C(C2OC(SCc3ccc(OCCN(C)C)cc3)CC2C)N(C)C(=O)C(C(C)C)N(C)C(=O)C(CC(C)C)N(C)C(=O)C(CC(C)C)N(C)C(=O)C(C)NC(=O)C(C)NC(=O)C(CC(C)C)N(C)C(=O)C(C(C)C)NC(=O)C(CC(C)C)N(C)C(=O)CN(C)C1=O` (stereo not drawn) [Compound 87A-s] has an IC50 of 1000 to 100000 nM.
For `CCC1NC(=O)C(C2OC(SCc3cccc(Cl)c3OC)CC2C)N(C)C(=O)C(C(C)C)N(C)C(=O)C(CC(C)C)N(C)C(=O)C(CC(C)C)N(C)C(=O)C(C)NC(=O)C(C)NC(=O)C(CC(C)C)N(C)C(=O)C(C(C)C)NC(=O)C(CC(C)C)N(C)C(=O)CN(C)C1=O` (stereo not drawn) [Compound 88A-s], the IC50 was 1000 to 100000 nM.
`CCC1NC(=O)C(C2OC(SCc3ccc(Cl)cc3Cl)CC2C)N(C)C(=O)C(C(C)C)N(C)C(=O)C(CC(C)C)N(C)C(=O)C(CC(C)C)N(C)C(=O)C(C)NC(=O)C(C)NC(=O)C(CC(C)C)N(C)C(=O)C(C(C)C)NC(=O)C(CC(C)C)N(C)C(=O)CN(C)C1=O` (stereo not drawn) [Compound 89A-s] showed an IC50 of 1000 to 100000 nM.
Work on `CCC1NC(=O)C(C2OC(SCc3c(Cl)cccc3Cl)CC2C)N(C)C(=O)C(C(C)C)N(C)C(=O)C(CC(C)C)N(C)C(=O)C(CC(C)C)N(C)C(=O)C(C)NC(=O)C(C)NC(=O)C(CC(C)C)N(C)C(=O)C(C(C)C)NC(=O)C(CC(C)C)N(C)C(=O)CN(C)C1=O` (stereo not drawn) [Compound 90A-s] yielded an IC50 of 1000 to 100000 nM.
In the case of `CCC1NC(=O)C(C2OC(SCc3cc(Cl)cc(Cl)c3)CC2C)N(C)C(=O)C(C(C)C)N(C)C(=O)C(CC(C)C)N(C)C(=O)C(CC(C)C)N(C)C(=O)C(C)NC(=O)C(C)NC(=O)C(CC(C)C)N(C)C(=O)C(C(C)C)NC(=O)C(CC(C)C)N(C)C(=O)CN(C)C1=O` (stereo not drawn) [Compound 91B-s], the IC50 is reported as 1000 to 100000 nM.
`CCC1NC(=O)C(C2OC(SC(C)c3cc(Cl)cc(Cl)c3)CC2C)N(C)C(=O)C(C(C)C)N(C)C(=O)C(CC(C)C)N(C)C(=O)C(CC(C)C)N(C)C(=O)C(C)NC(=O)C(C)NC(=O)C(CC(C)C)N(C)C(=O)C(C(C)C)NC(=O)C(CC(C)C)N(C)C(=O)CN(C)C1=O` (stereo not drawn) [Compound 92A-s] was tested, and the IC50 was 1000 to 100000 nM.
With `CCC1NC(=O)C(C2OC(SCc3ccc(Cl)c(Cl)c3)CC2C)N(C)C(=O)C(C(C)C)N(C)C(=O)C(CC(C)C)N(C)C(=O)C(CC(C)C)N(C)C(=O)C(C)NC(=O)C(C)NC(=O)C(CC(C)C)N(C)C(=O)C(C(C)C)NC(=O)C(CC(C)C)N(C)C(=O)CN(C)C1=O` (stereo not drawn) [Compound 94A-s] the IC50 was 1000 to 100000 nM.

Same assay, conditions: IC50, given as a range; assay not given
`CCC1NC(=O)C(C2OC(SCc3cccc(Cl)c3)CC2C)N(C)C(=O)C(C(C)C)N(C)C(=O)C(CC(C)C)N(C)C(=O)C(CC(C)C)N(C)C(=O)C(C)NC(=O)C(C)NC(=O)C(CC(C)C)N(C)C(=O)C(C(C)C)NC(=O)C(CC(C)C)N(C)C(=O)CN(C)C1=O` (stereo not drawn) [Compound 85A-s] showed an IC50 of 1000 to 100000 nM.
`CCC1NC(=O)C(C2OC(SCc3ccc(Cl)cc3)CC2C)N(C)C(=O)C(C(C)C)N(C)C(=O)C(CC(C)C)N(C)C(=O)C(CC(C)C)N(C)C(=O)C(C)NC(=O)C(C)NC(=O)C(CC(C)C)N(C)C(=O)C(C(C)C)NC(=O)C(CC(C)C)N(C)C(=O)CN(C)C1=O` (stereo not drawn) [Compound 86A-s] showed an IC50 of 1000 to 100000 nM.
With `CCC1NC(=O)C(C2OC(OCc3ccc(OCCN(C)C)cc3)CC2C)N(C)C(=O)C(C(C)C)N(C)C(=O)C(CC(C)C)N(C)C(=O)C(CC(C)C)N(C)C(=O)C(C)NC(=O)C(C)NC(=O)C(CC(C)C)N(C)C(=O)C(C(C)C)NC(=O)C(CC(C)C)N(C)C(=O)CN(C)C1=O` [Compound 87A, [2-((2R,3R)-5-(4-(2-(dimethylamino)ethoxy)benzyloxy)-3-methyltetrahydrofuran-2-yl)-2-(methylamino)acetic acid]^1-cyclosporin A] the IC50 was 1000 to 10000 nM.

Same assay, conditions: given as a range; assay not given
`CCC1NC(=O)C(C2OC(OCc3ccccc3Cl)CC2C)N(C)C(=O)C(C(C)C)N(C)C(=O)C(CC(C)C)N(C)C(=O)C(CC(C)C)N(C)C(=O)C(C)NC(=O)C(C)NC(=O)C(CC(C)C)N(C)C(=O)C(C(C)C)NC(=O)C(CC(C)C)N(C)C(=O)CN(C)C1=O` [Compound 84A, [2-((2R,3R)-5-(2-chlorobenzyloxy)-3-methyltetrahydrofuran-2-yl)-2-(methylamino)acetic acid]^1-cyclosporin A] was tested, and the IC50 was 1 to 1000 nM.
In the case of `CCC1NC(=O)C(C2OC(OCc3ccc(Cl)cc3)CC2C)N(C)C(=O)C(C(C)C)N(C)C(=O)C(CC(C)C)N(C)C(=O)C(CC(C)C)N(C)C(=O)C(C)NC(=O)C(C)NC(=O)C(CC(C)C)N(C)C(=O)C(C(C)C)NC(=O)C(CC(C)C)N(C)C(=O)CN(C)C1=O` [Compound 86A, [2-((2R,3R)-5-(4-chlorobenzyloxy)-3-methyltetrahydrofuran-2-yl)-2-(methylamino)acetic acid]^1-cyclosporin A], the IC50 is reported as 1 to 1000 nM.
`CCC1NC(=O)C(C2OC(SCc3cc(Cl)cc(Cl)c3)CC2C)N(C)C(=O)C(C(C)C)N(C)C(=O)C(CC(C)C)N(C)C(=O)C(CC(C)C)N(C)C(=O)C(C)NC(=O)C(C)NC(=O)C(CC(C)C)N(C)C(=O)C(C(C)C)NC(=O)C(CC(C)C)N(C)C(=O)CN(C)C1=O` [Compound 91A-s, [2-((2R,3R)-5-(3,5-dichlorobenzylthio)-3-methyltetrahydrofuran-2-yl)-2-(methylamino)acetic acid]^1-cyclosporin A] gave an IC50 of 1 to 1000 nM.
`CCC1NC(=O)C(C2OC(OCc3cc(Cl)cc(Cl)c3)CC2C)N(C)C(=O)C(C(C)C)N(C)C(=O)C(CC(C)C)N(C)C(=O)C(CC(C)C)N(C)C(=O)C(C)NC(=O)C(C)NC(=O)C(CC(C)C)N(C)C(=O)C(C(C)C)NC(=O)C(CC(C)C)N(C)C(=O)CN(C)C1=O` [Compound 91B, [2-((2R,3R)-5-(3,5-dichlorobenzyloxy)-3-methyltetrahydrofuran-2-yl)-2-(methylamino)acetic acid]^1-cyclosporin A] showed an IC50 of 1 to 1000 nM.
`CCC1NC(=O)C(C2OC(OC(C)c3cc(Cl)cc(Cl)c3)CC2C)N(C)C(=O)C(C(C)C)N(C)C(=O)C(CC(C)C)N(C)C(=O)C(CC(C)C)N(C)C(=O)C(C)NC(=O)C(C)NC(=O)C(CC(C)C)N(C)C(=O)C(C(C)C)NC(=O)C(CC(C)C)N(C)C(=O)CN(C)C1=O` [Compound 92A, [2-((2R,3R)-5-((S)-1-(3,5-dichlorophenyl)ethoxy)-3-methyltetrahydrofuran-2-yl)-2-(methylamino)acetic acid]^1-cyclosporin A] showed an IC50 of 1 to 1000 nM.

Same assay, conditions: given as a range; assay not given; read-out: IC50
Work on `CC[C@@H]1NC(=O)[C@H]([C@@H]2OC(OCc3cccc(Cl)c3)C[C@H]2C)N(C)C(=O)[C@H](C(C)C)N(C)C(=O)[C@H](CC(C)C)N(C)C(=O)[C@H](CC(C)C)N(C)C(=O)[C@@H](C)NC(=O)[C@H](C)NC(=O)[C@H](CC(C)C)N(C)C(=O)[C@H](C(C)C)NC(=O)[C@H](CC(C)C)N(C)C(=O)CN(C)C1=O` (stereo partly drawn) [Compound 85A, [2-((2R,3R)-5-(3-chlorobenzyloxy)-3-methyltetrahydrofuran-2-yl)-2-(methylamino)acetic acid]^1-cyclosporin A] yielded an IC50 of 1 to 1000 nM.
Compound `CC[C@@H]1NC(=O)[C@H]([C@@H]2OC(OCc3cc(Cl)cc(Cl)c3)C[C@H]2C)N(C)C(=O)[C@H](C(C)C)N(C)C(=O)[C@H](CC(C)C)N(C)C(=O)[C@H](CC(C)C)N(C)C(=O)[C@@H](C)NC(=O)[C@H](C)NC(=O)[C@H](CC(C)C)N(C)C(=O)[C@H](C(C)C)NC(=O)[C@H](CC(C)C)N(C)C(=O)CN(C)C1=O` (stereo partly drawn) [Compound 91A, [2-((2R,3R)-5-(3,5-dichlorobenzyloxy)-3-methyltetrahydrofuran-2-yl)-2-(methylamino)acetic acid]^1-cyclosporin A] has an IC50 of 1 to 1000 nM.

From patent publication US10961231B2, “NTCP inhibitors” (National Institute of Biological Sciences, Beijing, priority 2018, dated 2021)
